Results on one molecule are retold here after patent US20240082273A1, “NEUROKININ INHIBITORS SUCH AS APREPITANT FOR TREATING NON SMALL CELL LUNG CARCINOMA OR BREAST CANCER WITHOUT MUTATIONS” (priority 2020, published 2024).

Series [1] has as its system breast cancer cell lines ER+/PR+/HER2− (MCF7, T47D). Description: MTT proliferation, breast cancer cell lines ER+/PR+/HER2−. The class given is cell-based, human. The note with it: 48 hours. As for the experimental part:
All cells were cultured in wells under vendor-recommended conditions and exposed to different concentrations of aprepitant for 48 hours. In each case a group of wells of cells were used to which no treatment was applied and which were considered as controls. At 48 hours the number of cells was measured. To measure cell viability, the cytotoxicity of drugs in culture was evaluated using the 3-(4,5-Dimethyl-2-thiazolyl)-2,5-diphenyl-2H-tetrazolium bromide (MTT) reduction assay. This assay assesses cell viability through the indirect measurement of the activity of reductases that convert yellow soluble MTT into purple insoluble formazan salts. As MTT can only be reduced when these enzymes are active, the reaction is used as an indicator of the cell metabolic competence and, therefore, of viability. A variable number of cells (depending on the cell line) were seeded in 96 multi-well plates and grown during 24 hours. The following day, the culture medium was aspirated and fresh culture medium with the drug dissolved was added to the wells. After 24 hours or 48 hours cell viability was measurement by adding 10 μl of a 5 mg/ml MTT solution (M5655; Sigma-Aldrich) and 100 μl of HCl 0.01M-SDS 10% solution 4 hours later. After 24 hours, the absorbance was measured at 595 nm, using a multi-well plate reader (iMark, Bio-rad). Each condition was tested 5 times, obtaining 5 values of absorbance. All sample measurements were corrected using the blank (culture medium without cells) mean absorbance value, and normalized to positive control to determinate relative cell viability for each condition at 24 and 48 hours.

For series [2] the following is noted: daily dosing from 625 to 875 mg; cited from earlier work.

On to `C[C@@H](O[C@H]1OCCN(Cc2nc(=O)[nH][nH]2)[C@H]1c1ccc(F)cc1)c1cc(C(F)(F)F)cc(C(F)(F)F)c1` [Aprepitant], for which the Mean proliferation in series [1] (aprepitant 0.3 μM) was found to be 102.47; in series [1] (aprepitant 1 μM), 99.16; in series [1] (aprepitant 3 μM), 106.96; in series [1] (aprepitant 10 μM), 81.55; in series [1] (aprepitant 20 μM), 67.98; in series [1] (aprepitant 30 μM), 54.13. Besides, the results for the Mean proliferation in series [1] (aprepitant 40 μM), in series [1] (aprepitant 50 μM) and in series [1] (aprepitant 60 μM) were 35.22, 21.79 and 11.7, respectively. The plasma trough level in series [2] is 2.65 µg/mL. Besides, in series [2], the “plasma trough level (equivalent)” value is 5 µM.
